ChEMBL document CHEMBL1681639, “Discovery of substituted 3-(phenylamino)benzoic acids as potent and selective inhibitors of type 5 17β-hydroxysteroid dehydrogenase (AKR1C3)” (Bioorg Med Chem Lett, 2011)

target: T1, Aldo-keto reductase family 1 member C3 (Homo sapiens, UniProt P42330); assay: Inhibition of AKR1C3 by fluorimetric method
T1 sequence (P42330 whole entry): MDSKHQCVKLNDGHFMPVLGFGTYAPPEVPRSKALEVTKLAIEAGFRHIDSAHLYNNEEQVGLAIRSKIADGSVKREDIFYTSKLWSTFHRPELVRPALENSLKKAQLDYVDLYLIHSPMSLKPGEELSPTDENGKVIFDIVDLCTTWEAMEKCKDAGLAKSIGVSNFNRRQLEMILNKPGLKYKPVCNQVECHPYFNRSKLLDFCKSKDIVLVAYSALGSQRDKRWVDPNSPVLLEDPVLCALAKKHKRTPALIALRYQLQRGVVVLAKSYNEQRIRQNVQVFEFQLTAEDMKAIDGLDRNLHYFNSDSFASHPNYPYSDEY

| SMILES | IC50 [nM] |
| --- | --- |
| O=C(O)c1cccc(Nc2ccc(C(F)(F)F)cc2)c1 | 62 |
| O=C(O)c1cccc(Nc2ccc(Cl)cc2)c1 | 130 |
| COc1ccc(Nc2cccc(C(=O)O)c2)cc1 | 490 |
| Cc1ccc(Nc2cccc(C(=O)O)c2)cc1 | 700 |
| O=C(O)c1ccccc1Nc1cccc(C(F)(F)F)c1 [FLUFENAMIC ACID] | 51 |
